In patent US7041677B2, “Use of monochloroflosequinan in the treatment of sexual dysfunction” (R.T. Alamo Ventures I, LLC, priority 2002, dated 2006):
One block for each molecule: values may come before it.

Experiments:
PDE2 = target: T1, PDE2 (Homo sapiens, UniProt O00408); assay: PDE2 enzyme inhibition assay; type: biochemical; conditions: 1% DMSO vehicle
T1 construct: PDE2 partially purified from human platelets was used; from tissue; host or cells: human platelets
From the text: (§1) In this example, a racemic mixture of monochloroflosequinan and the sulfone derivative of monochloroflosequinan were independently subjected to biochemical enzyme assays to determine their respective percent inhibition of a variety of phosphodiesterases (PDE1-PDE6). The methods used have been adapted from those described in the scientific literature, see Hidaka and Asano “Human blood platelet 3′:5′ cyclic nucleotide phosphodiesterase. Isolation of low-Km and high Km phosphodiesterase.” Biochem. Biophys. […] Unhydrolyzed cAMP was bound to AGI-X2 resin, and the remaining [^3H]adenosine in the aqueous phase was quantitated by scintillation counting. • PDE2: PDE2 partially purified from human platelets was used. […] Unhydrolyzed cAMP was bound to AGI-X2 resin, and the remaining [^3H]adenosine in the aqueous phase was quantitated by scintillation counting. • PDE3: PDE3 partially purified from human platelets was used. […] Unhydrolyzed cAMP was bound to AGI-X2 resin, and the remaining [^3H]adenosine in the aqueous phase was quantitated by scintillation counting. • PDE4: PDE4 partially purified from human U-937 pronocytic cells was used. […] Unhydrolyzed cAMP was bound to AGI-X2 resin, and the remaining [^3H]adenosine in the aqueous phase was quantitated by scintillation counting. • PDE5: PDE5 partially purified from human platelets was used. […]

PDE4 = PDE4 enzyme inhibition assay; type: biochemical, human; conditions: 200 μM, 25° C., 1% DMSO vehicle
From the text: as §1

[1] = Plasma levels following oral administration; type: in vivo

T1 sequence (O00408 whole entry): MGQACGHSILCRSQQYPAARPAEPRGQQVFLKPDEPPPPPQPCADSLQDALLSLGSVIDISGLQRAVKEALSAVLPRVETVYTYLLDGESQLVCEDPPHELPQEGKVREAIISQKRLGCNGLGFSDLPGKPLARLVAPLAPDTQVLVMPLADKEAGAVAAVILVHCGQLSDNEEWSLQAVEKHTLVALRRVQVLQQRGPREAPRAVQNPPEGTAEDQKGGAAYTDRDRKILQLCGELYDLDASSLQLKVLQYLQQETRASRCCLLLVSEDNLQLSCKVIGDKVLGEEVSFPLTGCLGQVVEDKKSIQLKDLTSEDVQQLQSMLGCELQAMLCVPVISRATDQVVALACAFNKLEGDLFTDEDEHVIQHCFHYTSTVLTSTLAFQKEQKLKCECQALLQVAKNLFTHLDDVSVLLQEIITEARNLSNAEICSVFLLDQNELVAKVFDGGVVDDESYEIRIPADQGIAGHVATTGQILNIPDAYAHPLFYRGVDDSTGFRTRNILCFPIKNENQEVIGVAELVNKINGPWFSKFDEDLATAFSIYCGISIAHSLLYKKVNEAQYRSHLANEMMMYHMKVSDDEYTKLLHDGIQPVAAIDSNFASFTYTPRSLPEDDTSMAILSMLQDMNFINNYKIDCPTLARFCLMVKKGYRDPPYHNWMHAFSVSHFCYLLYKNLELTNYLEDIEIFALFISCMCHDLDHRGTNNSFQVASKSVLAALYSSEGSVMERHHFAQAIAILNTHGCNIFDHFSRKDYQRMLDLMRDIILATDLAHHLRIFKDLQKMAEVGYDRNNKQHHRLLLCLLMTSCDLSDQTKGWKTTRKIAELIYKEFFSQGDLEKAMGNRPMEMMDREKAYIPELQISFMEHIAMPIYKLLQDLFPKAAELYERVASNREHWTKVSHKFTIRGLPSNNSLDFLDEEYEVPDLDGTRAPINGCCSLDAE

inhibition of PDE2 (PDE2; 100 uM, 30° C.): Significant inhibition
SMILES: Cn1cc([S+]([O-])CCl)c(=O)c2ccc(F)cc21 (racemic) [monochloroflosequinan, 3-chloromethylsulfinyl-7-fluoro-1-methyl-4-quinolone]

inhibition of PDE4 (PDE4): greater than 50%
SMILES: Cn1cc([S@@+]([O-])CCl)c(=O)c2ccc(F)cc21 (single isomer, unassigned) [(−)-enantiomer of monochloroflosequinan]

inhibition of PDE2 (PDE2; 200 μM, 25° C.): greater than 50% | time of peak plasma concentrations ([1]; following oral administration): 1 to 2 h | time of peak metabolite plasma levels ([1]; following oral dosage): about seven
SMILES: Cn1cc([S@+]([O-])CCl)c(=O)c2ccc(F)cc21 (single isomer, unassigned) [(+)-enantiomer of monochloroflosequinan]
